Results taken from patent US8034242B2, “Dialysis device” (Linden Technologies, Inc., priority 2004, dated 2011).

Tested on: plasma protein
Assay type: in vitro ADME, dog
Procedure: One dialysis device was used in an equilibrium dialysis study to measure plasma protein binding of warfarin. A 0.1 M warfarin solution was prepared by dissolving 0.154 g of warfarin in 5 ml of phosphate buffered salts (PBS). The pH was adjusted with 400 Tl of 6 M NaOH to a final volume of 5.761 ml and a final concentration of 86.8 mM. The warfarin solution was then diluted to 1 mM before adding to the plasma solution. 2.2 Tl of 1 mM warfarin was added to 2.2 ml plasma to make 1 TM final concentration of warfarin in the plasma. 1 ml of the warfarin-containing dog plasma was added inside the cylindrical membrane of each dialysis device and 1 ml of PBS to outside of the membrane. The filled device was placed in a 37° C. incubator with gentle shaking 100 Tl samples were withdrawn separately from the plasma and the buffer chambers at 0.5, 1, 2, 3, and 4 h intervals. To the plasma sample was added 100 μl of blank buffer. To the buffer sample was added 100 μl of blank plasma. After mixing, 50 μl of the plasma sample was withdrawn. To the plasma sample (50 μl) was added 450 μl of 1:1 ratio of plasma/buffer solution to make a 10-fold dilution. The sample from the buffer was not diluted. 200 μl acetonitrile was added to 200 μl each of the samples from plasma and the buffer. The mixtures were vortexed and then centrifuged at 13,000 rpm for 3 min. The resulting extracts were analyzed using an API-40003 LC/MS/MS system (Applied Biosciences/MDS SCIEX). […] The experiment was conducted in duplicate.

## CC(=O)CC(c1ccccc1)c1c(O)c2ccccc2oc1=O (stereo not drawn) [warfarin]
  consistency of equilibrium curve (time to equilibrium): ≤ 1 h
  dialysis reached equilibrium state (time): ≤ 30 min
dog, 1 µM
  ratio of protein binding: ~99%
